According to PubChem BioAssay (NCI):
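Exposure lasted 48 hours, with cells grown in 96-well plates and compounds tested at five concentrations. Here, GI50 denotes the concentration required for 50% inhibition of growth. TGI: concentration producing complete growth inhibition.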

Tests used:
Assay in all cases: inhibition of tumour cell growth, NCI panel, 48 h
UO-31 renal = tested on: UO-31 renal
CAKI-1 renal = tested on: CAKI-1 renal
OVCAR-8 ovarian = tested on: OVCAR-8 ovarian
NCI-H23 lung = tested on: NCI-H23 lung
LOX IMVI melanoma = tested on: LOX IMVI melanoma
OVCAR-3 ovarian = tested on: OVCAR-3 ovarian
SK-MEL-28 melanoma = tested on: SK-MEL-28 melanoma
SNB-19 CNS = tested on: SNB-19 CNS
SK-OV-3 ovarian = tested on: SK-OV-3 ovarian
SR leukemia = tested on: SR leukemia

Row | SMILES | GI50 (UO-31 renal) | TGI (UO-31 renal) | GI50 (CAKI-1 renal) | TGI (CAKI-1 renal) | GI50 (OVCAR-8 ovarian) | TGI (OVCAR-8 ovarian) | GI50 (NCI-H23 lung) | TGI (NCI-H23 lung) | GI50 (LOX IMVI melanoma) | TGI (LOX IMVI melanoma) | GI50 (OVCAR-3 ovarian) | TGI (OVCAR-3 ovarian) | GI50 (SK-MEL-28 melanoma) | TGI (SK-MEL-28 melanoma) | GI50 (SNB-19 CNS) | TGI (SNB-19 CNS) | TGI (SK-OV-3 ovarian) | TGI (SR leukemia) | GI50 (SK-OV-3 ovarian) | GI50 (SR leukemia)
1 | O=C1C=C(c2cc(Br)c(O)c(Br)c2)/C(=C/c2cc(Br)c(O)c(Br)c2)O1 | 19.2 µM | > 75 µM | 34.3 µM | > 75 µM | 29 µM | > 75 µM | 35.2 µM | > 75 µM | 14.9 µM | 43.2 µM | 21 µM | 71 µM | 34.8 µM | > 75 µM | 14 µM | > 75 µM | – | – | – | –
2 | CCCN(CCCCC(NC(C)=O)C(=O)NCc1ccccc1)C(=O)NC (centres undefined) | – | > 100 µM | – | > 100 µM | – | > 100 µM | – | > 100 µM | – | > 100 µM | – | > 100 µM | – | > 100 µM | – | > 100 µM | > 100 µM | – | – | –
3 | COC(=O)/C(=N/NC(C)(C)C)C(C(=O)C=C(C)C)C(=O)C(=O)Nc1ccc(Cl)cc1C (centres undefined) | – | > 100 µM | – | > 100 µM | – | > 100 µM | – | > 100 µM | – | – | – | > 100 µM | – | > 100 µM | – | > 100 µM | > 100 µM | > 100 µM | – | –
4 | O=C(N=Nc1c(O)[nH]c2ccccc12)c1ccccc1O | – | 79.9 µM | – | – | – | > 100 µM | – | 92 µM | – | > 100 µM | – | > 100 µM | – | > 100 µM | – | > 100 µM | 46.6 µM | – | – | –
5 | CN(C)CCNC(=O)c1cccc(CO)c1[N+](=O)[O-] | – | > 100 µM | – | > 100 µM | – | > 100 µM | – | > 100 µM | – | – | – | > 100 µM | – | > 100 µM | – | > 100 µM | > 100 µM | > 100 µM | – | –
6 | CC(C)(C)C([O-])=C1C(=O)c2ccccc2C1=O.CC(C)(C)C([O-])=C1C(=O)c2ccccc2C1=O.CC[O-].CC[O-].[Ti+4] | 19.1 µM | 44.5 µM | 28 µM | 81.7 µM | 29.3 µM | 90.1 µM | 31.8 µM | > 100 µM | 40.4 µM | > 100 µM | 27.9 µM | 91.4 µM | > 100 µM | > 100 µM | 40.8 µM | > 100 µM | > 100 µM | – | 39.9 µM | –
7 | CC(C)(C)N=CN1CCC(C(c2ccccc2)c2ccccc2)CC1 | – | – | – | > 100 µM | – | > 100 µM | – | > 100 µM | – | > 100 µM | – | > 100 µM | – | > 100 µM | – | > 100 µM | – | – | – | –
8 | NC(N)=N/N=C/c1c(-c2cc(Cl)sc2Cl)nc2n1CCS2 | 17.3 µM | > 50 µM | 12.8 µM | 23.2 µM | 10.3 µM | 22.1 µM | 8.77 µM | 16.7 µM | 8.33 µM | 15.8 µM | 8.81 µM | 17.3 µM | – | – | – | – | – | 20.7 µM | – | 8.04 µM
9 | CCOC(=O)c1c2ccc(/C=C/C(=O)OC)ccc-2c(C(=O)OCC)c1N | – | > 100 µM | – | > 100 µM | – | – | – | > 100 µM | – | > 100 µM | – | > 100 µM | – | 8.42 µM | – | > 100 µM | > 100 µM | – | – | –
10 | ClCCn1cnc2c(SCc3ccccc3)ncnc21 | 2.13 µM | 39.4 µM | 8.86 µM | > 100 µM | 1.18 µM | > 100 µM | 29.2 µM | > 100 µM | 0.534 µM | 18.6 µM | 7.45 µM | > 100 µM | 10.9 µM | > 100 µM | 2.61 µM | > 100 µM | > 100 µM | – | 8.3 µM | –
11 | CN(C)CCNc1cccc2sc3ccc(O)cc3c(=O)c12 | 1.16 µM | 3.58 µM | 2.22 µM | 13.3 µM | 2.16 µM | 9.78 µM | 4.03 µM | 17 µM | – | – | 3.28 µM | 11.5 µM | 1.74 µM | 3.88 µM | 4.04 µM | 17.4 µM | 14.4 µM | 4.37 µM | 3.36 µM | 1.08 µM
12 | CCCCCCCCCCCCC(SCCNC(=O)CCNC(=O)C(O)C(C)(C)COP(=O)(O)OP(=O)(O)OCC1OC(n2cnc3c(N)ncnc32)C(O)C1OP(=O)(O)O)C(=O)NCC(N)=O (centres undefined) | – | > 100 µM | – | – | – | > 100 µM | – | > 100 µM | – | > 100 µM | – | > 100 µM | – | > 100 µM | – | > 100 µM | 98.2 µM | – | – | –
13 | CCN(CC)CC(C)Nc1ccc(C)c2sc3ccccc3c(=O)c12 (centres undefined) | 1.77 µM | 7.69 µM | 3.04 µM | 14.1 µM | 6.86 µM | 25.3 µM | 5.94 µM | 19.8 µM | 1.52 µM | 3.99 µM | 6.33 µM | 19.2 µM | 1.73 µM | 3.41 µM | 6.44 µM | 19.5 µM | 12.3 µM | – | 2.85 µM | –
14 | O=C1c2cccc3cc([N+](=O)[O-])cc(c23)C(=O)N1CCCN1CCN(CCCN2C(=O)c3cccc4cc([N+](=O)[O-])cc(c34)C2=O)CC1 | – | 1.01 µM | – | – | – | > 100 µM | – | 7.64 µM | – | – | – | 4.81 µM | – | – | – | > 100 µM | 46.8 µM | – | – | –
15 | COc1ccc2c(C3(O)CCNCC3)c[nH]c2c1 | – | > 100 µM | – | > 100 µM | – | > 100 µM | – | > 100 µM | – | > 100 µM | – | > 100 µM | – | > 100 µM | – | > 100 µM | > 100 µM | – | – | –
16 | COC(=O)C12C3C4C1C1C2C3C41I (centres undefined) | – | > 100 µM | – | > 100 µM | – | > 100 µM | – | > 100 µM | – | – | – | > 100 µM | – | > 100 µM | – | > 100 µM | > 100 µM | – | – | –
17 | Cc1cc2occ(C)c(=O)c2c2c1OC(C)(C)S2 | – | > 100 µM | – | – | – | > 100 µM | – | > 100 µM | – | > 100 µM | – | > 100 µM | – | > 100 µM | – | > 100 µM | > 100 µM | > 100 µM | – | –
18 | CCCCCCCCCCCC(=O)C1=C(O)C(O)CCC1=O (centres undefined) | – | 64.9 µM | – | 70.6 µM | – | 36.6 µM | – | 20 µM | – | 28.2 µM | – | 38.3 µM | – | 38.6 µM | – | 49.4 µM | 67.2 µM | – | – | –
19 | CCc1cccc(C)c1NC(=O)CC1Sc2ccccc2NC1=O (centres undefined) | – | > 100 µM | – | > 100 µM | – | > 100 µM | – | > 100 µM | – | > 100 µM | – | > 100 µM | – | > 100 µM | – | > 100 µM | > 100 µM | – | – | –
20 | CCOC(=O)/C=C(/CN1C(=O)c2ccccc2C1=O)c1ccccc1 | – | > 100 µM | – | > 100 µM | – | > 100 µM | – | > 100 µM | – | > 100 µM | – | > 100 µM | – | > 100 µM | – | > 100 µM | > 100 µM | – | – | –
